Each structure is given as a SMILES string.

These results are taken from patent publication US12539292B2, “BRM targeting compounds and associated methods of use” (Arvinas Operations, Inc., priority 2018, dated 2026).

The test has as its target T1, BRM (Homo sapiens, UniProt P51531).
T1 construct: In-Cell Western Screen of BRM Degradation in SW1573 Cells; endogenous in cells; host or cells: SW1573
In words: In-cell Western screen of BRM degradation in SW1573 cells (Dmax and DC50). It counts as cell-based. Conditions: BRM degradation, SW1573 cells; for DC50: read-out: DC50; for Dmax: tested at the top concentration of between 0.3 and 10 μM, read-out: Dmax (%) (% degraded). The method, boiled down:
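Overnight compound treatment (18-20 h, final DMSO 0.1%) of SW1573 cells in DMEM with 10% FBS precedes fixation and in-cell Western staining with 800/680 nm dye-labelled secondaries. Plate images give DC50 and maximal degradation.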

T1 sequence (P51531 whole entry): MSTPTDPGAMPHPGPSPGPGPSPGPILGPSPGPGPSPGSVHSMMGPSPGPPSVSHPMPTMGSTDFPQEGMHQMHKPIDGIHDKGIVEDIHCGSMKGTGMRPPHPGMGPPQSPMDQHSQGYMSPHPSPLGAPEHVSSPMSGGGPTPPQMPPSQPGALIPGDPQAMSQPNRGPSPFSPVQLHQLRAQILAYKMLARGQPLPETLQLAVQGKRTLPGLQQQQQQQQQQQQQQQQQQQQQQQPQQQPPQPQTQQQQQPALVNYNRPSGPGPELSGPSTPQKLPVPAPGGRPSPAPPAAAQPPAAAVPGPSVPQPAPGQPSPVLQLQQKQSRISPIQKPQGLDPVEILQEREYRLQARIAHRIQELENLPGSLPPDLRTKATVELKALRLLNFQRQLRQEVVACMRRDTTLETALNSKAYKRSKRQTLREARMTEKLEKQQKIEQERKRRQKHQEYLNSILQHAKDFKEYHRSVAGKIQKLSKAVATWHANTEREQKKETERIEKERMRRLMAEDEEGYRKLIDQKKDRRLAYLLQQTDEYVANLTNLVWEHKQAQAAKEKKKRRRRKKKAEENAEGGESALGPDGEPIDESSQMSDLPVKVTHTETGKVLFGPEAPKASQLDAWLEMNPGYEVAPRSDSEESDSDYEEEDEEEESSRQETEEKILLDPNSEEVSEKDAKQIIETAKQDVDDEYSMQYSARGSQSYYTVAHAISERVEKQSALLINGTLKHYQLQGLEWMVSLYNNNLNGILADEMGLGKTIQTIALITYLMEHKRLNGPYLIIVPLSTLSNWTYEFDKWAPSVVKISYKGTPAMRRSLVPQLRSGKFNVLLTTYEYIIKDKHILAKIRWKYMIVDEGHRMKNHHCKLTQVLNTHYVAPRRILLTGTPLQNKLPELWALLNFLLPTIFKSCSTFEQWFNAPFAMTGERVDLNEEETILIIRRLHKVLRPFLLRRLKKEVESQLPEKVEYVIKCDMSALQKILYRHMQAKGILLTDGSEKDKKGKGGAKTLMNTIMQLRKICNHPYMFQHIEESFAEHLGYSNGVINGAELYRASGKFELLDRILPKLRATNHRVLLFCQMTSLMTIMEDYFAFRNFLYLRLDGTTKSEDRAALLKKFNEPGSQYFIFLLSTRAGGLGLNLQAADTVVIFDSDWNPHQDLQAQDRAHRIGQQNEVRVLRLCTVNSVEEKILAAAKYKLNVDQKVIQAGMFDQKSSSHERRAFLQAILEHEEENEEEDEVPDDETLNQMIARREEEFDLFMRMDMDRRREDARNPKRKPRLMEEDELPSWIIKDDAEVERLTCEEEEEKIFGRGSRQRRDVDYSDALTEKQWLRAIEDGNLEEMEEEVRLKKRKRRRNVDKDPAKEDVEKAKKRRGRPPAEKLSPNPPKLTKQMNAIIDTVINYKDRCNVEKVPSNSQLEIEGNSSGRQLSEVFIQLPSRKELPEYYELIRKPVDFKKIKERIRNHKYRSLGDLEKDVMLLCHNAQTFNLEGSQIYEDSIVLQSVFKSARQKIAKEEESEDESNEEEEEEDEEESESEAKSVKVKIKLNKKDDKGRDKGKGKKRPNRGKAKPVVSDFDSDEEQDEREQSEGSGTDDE

As for `Cc1ncsc1-c1ccc([C@H](C)NC(=O)[C@@H]2C[C@@H](O)CN2C(=O)[C@@H](c2onc(OCCN3CCC(O[C@H]4C[C@H](Oc5cc(N6C7CCC6CN(c6cc(-c8ccccc8O)nnc6N)C7)ccn5)C4)CC3)c2F)C(C)C)cc1` [compound 209, (2S,4R)-1-((2R)-2-(3-(2-(4-((1r,3R)-3-((4-(3-(3-amino-6-(2-hydroxyphenyl)pyridazin-4-yl)-3,8-diazabicyclo[3.2.1]octan-8-yl)pyridin-2-yl)oxy)cyclobutoxy)piperidin-1-yl)ethoxy)-4-fluoroisoxazol-5-yl)-3-methylbutanoyl)-4-hydroxy-N-((S)-1-(4-(4-methylthiazol-5-yl)phenyl)ethyl)pyrrolidine-2-carboxamide], the DC50 was less than 2.5 nM and the Dmax was greater than 75%.
For `Cc1ncsc1-c1ccc(CNC(=O)[C@@H]2C[C@@H](O)CN2C(=O)[C@@H](c2cc(OCCN3CCN(CCOc4cc(N5C6CCC5CN(c5cc(-c7ccccc7O)nnc5N)C6)ccn4)C[C@@H]3C)no2)C(C)C)cc1` [compound 210, (2S,4R)-1-((2R)-2-(3-(2-((2S)-4-(2-((4-(3-(3-amino-6-(2-hydroxyphenyl)pyridazin-4-yl)-3,8-diazabicyclo[3.2.1]octan-8-yl)pyridin-2-yl)oxy)ethyl)-2-methylpiperazin-1-yl)ethoxy)isoxazol-5-yl)-3-methylbutanoyl)-4-hydroxy-N-(4-(4-methylthiazol-5-yl)benzyl)pyrrolidine-2-carboxamide], the DC50 was less than 2.5 nM and the Dmax is greater than 75%.
As for `CC(C)[C@@H](C(=O)N1C[C@H](O)C[C@H]1C(=O)N[C@@H](C)c1ccc(-c2scnc2CO)cc1)c1cc(OCCN2CCC(O[C@H]3C[C@H](Oc4cc(N5C6CCC5CN(c5cc(-c7ccccc7O)nnc5N)C6)ccn4)C3)CC2)no1` [compound 211, (2S,4R)-1-((2R)-2-(3-(2-(4-((1r,3R)-3-((4-(3-(3-amino-6-(2-hydroxyphenyl)pyridazin-4-yl)-3,8-diazabicyclo[3.2.1]octan-8-yl)pyridin-2-yl)oxy)cyclobutoxy)piperidin-1-yl)ethoxy)isoxazol-5-yl)-3-methylbutanoyl)-4-hydroxy-N-((S)-1-(4-(4-(hydroxymethyl)thiazol-5-yl)phenyl)ethyl)pyrrolidine-2-carboxamide], the DC50 was less than 2.5 nM and the Dmax was greater than 75%.
As to `Cc1ncoc1-c1ccc([C@H](C)NC(=O)[C@@H]2C[C@@H](O)CN2C(=O)[C@H](c2cc(OCCN3CCC(O[C@H]4C[C@H](Oc5cc(N6C7CCC6CN(c6cc(-c8ccccc8O)nnc6N)C7)ccn5)C4)CC3)no2)C(C)C)cc1` [compound 212, (2S,4R)-1-((2S)-2-(3-(2-(4-((1r,3S)-3-((4-(3-(3-amino-6-(2-hydroxyphenyl)pyridazin-4-yl)-3,8-diazabicyclo[3.2.1]octan-8-yl)pyridin-2-yl)oxy)cyclobutoxy)piperidin-1-yl)ethoxy)isoxazol-5-yl)-3-methylbutanoyl)-4-hydroxy-N-((S)-1-(4-(4-methyloxazol-5-yl)phenyl)ethyl)pyrrolidine-2-carboxamide], the DC50 is greater than 30 nM and the Dmax was greater than 75%.
Regarding `Cc1ncoc1-c1ccc([C@H](C)NC(=O)[C@@H]2C[C@@H](O)CN2C(=O)[C@@H](c2cc(OCCN3CCC(O[C@H]4C[C@H](Oc5cc(N6C7CCC6CN(c6cc(-c8ccccc8O)nnc6N)C7)ccn5)C4)CC3)no2)C(C)C)cc1` [compound 213, (2S,4R)-1-((2R)-2-(3-(2-(4-((1r,3R)-3-((4-(3-(3-amino-6-(2-hydroxyphenyl)pyridazin-4-yl)-3,8-diazabicyclo[3.2.1]octan-8-yl)pyridin-2-yl)oxy)cyclobutoxy)piperidin-1-yl)ethoxy)isoxazol-5-yl)-3-methylbutanoyl)-4-hydroxy-N-((S)-1-(4-(4-methyloxazol-5-yl)phenyl)ethyl)pyrrolidine-2-carboxamide], the DC50 was less than 2.5 nM and the Dmax was greater than 75%.
With `COc1cc(-c2scnc2C)ccc1CNC(=O)[C@@H]1C[C@@H](O)CN1C(=O)[C@H](c1cc(OCCN2CCC(O[C@H]3C[C@H](Oc4cc(N5C6CCC5CN(c5cc(-c7ccccc7O)nnc5N)C6)ccn4)C3)CC2)no1)C(C)C` [compound 214, (2S,4R)-1-((2S)-2-(3-(2-(4-((1r,3S)-3-((4-(3-(3-amino-6-(2-hydroxyphenyl)pyridazin-4-yl)-3,8-diazabicyclo[3.2.1]octan-8-yl)pyridin-2-yl)oxy)cyclobutoxy)piperidin-1-yl)ethoxy)isoxazol-5-yl)-3-methylbutanoyl)-4-hydroxy-N-(2-methoxy-4-(4-methylthiazol-5-yl)benzyl)pyrrolidine-2-carboxamide], the DC50 is greater than 30 nM.
Regarding `COc1cc(-c2scnc2C)ccc1CNC(=O)[C@@H]1C[C@@H](O)CN1C(=O)[C@@H](c1cc(OCCN2CCC(O[C@H]3C[C@H](Oc4cc(N5C6CCC5CN(c5cc(-c7ccccc7O)nnc5N)C6)ccn4)C3)CC2)no1)C(C)C` [compound 215, (2S,4R)-1-((2R)-2-(3-(2-(4-((1r,3R)-3-((4-(3-(3-amino-6-(2-hydroxyphenyl)pyridazin-4-yl)-3,8-diazabicyclo[3.2.1]octan-8-yl)pyridin-2-yl)oxy)cyclobutoxy)piperidin-1-yl)ethoxy)isoxazol-5-yl)-3-methylbutanoyl)-4-hydroxy-N-(2-methoxy-4-(4-methylthiazol-5-yl)benzyl)pyrrolidine-2-carboxamide], the DC50 was less than 2.5 nM and the Dmax is greater than 75%.
For `Cc1ncsc1-c1ccc([C@H](C)NC(=O)[C@@H]2C[C@@H](O)CN2C(=O)[C@@H](c2cc(OCCN3CCC(O[C@H]4C[C@H](C#Cc5cc(N6C7CCC6CN(c6cc(-c8ccccc8O)nnc6N)C7)ccn5)C4)CC3)no2)C(C)C)cc1` [compound 216, (2S,4R)-1-((2R)-2-(3-(2-(4-((1r,3R)-3-((4-(3-(3-amino-6-(2-hydroxyphenyl)pyridazin-4-yl)-3,8-diazabicyclo[3.2.1]octan-8-yl)pyridin-2-yl)ethynyl)cyclobutoxy)piperidin-1-yl)ethoxy)isoxazol-5-yl)-3-methylbutanoyl)-4-hydroxy-N-((S)-1-(4-(4-methylthiazol-5-yl)phenyl)ethyl)pyrrolidine-2-carboxamide], the DC50 is less than 2.5 nM and the Dmax was greater than 75%.
The corresponding values for `Cc1ncsc1-c1ccc([C@H](C)NC(=O)[C@@H]2C[C@@H](O)CN2C(=O)[C@H](c2cc(OCCCN3CCC(O[C@H]4C[C@H](Oc5cc(N6C7CCC6CN(c6cc(-c8ccccc8O)nnc6N)C7)ccn5)C4)CC3)no2)C(C)C)cc1` [compound 217, (2S,4R)-1-((2S)-2-(3-(3-(4-((1r,3S)-3-((4-(3-(3-amino-6-(2-hydroxyphenyl)pyridazin-4-yl)-3,8-diazabicyclo[3.2.1]octan-8-yl)pyridin-2-yl)oxy)cyclobutoxy)piperidin-1-yl)propoxy)isoxazol-5-yl)-3-methylbutanoyl)-4-hydroxy-N-((S)-1-(4-(4-methylthiazol-5-yl)phenyl)ethyl)pyrrolidine-2-carboxamide] are 2.5 to 10 nM and greater than 75%.
With `Cc1ncsc1-c1ccc([C@H](C)NC(=O)[C@@H]2C[C@@H](O)CN2C(=O)[C@@H](c2cc(OCCCN3CCC(O[C@H]4C[C@H](Oc5cc(N6C7CCC6CN(c6cc(-c8ccccc8O)nnc6N)C7)ccn5)C4)CC3)no2)C(C)C)cc1` [compound 218, (2S,4R)-1-((2R)-2-(3-(3-(4-((1r,3R)-3-((4-(3-(3-amino-6-(2-hydroxyphenyl)pyridazin-4-yl)-3,8-diazabicyclo[3.2.1]octan-8-yl)pyridin-2-yl)oxy)cyclobutoxy)piperidin-1-yl)propoxy)isoxazol-5-yl)-3-methylbutanoyl)-4-hydroxy-N-((S)-1-(4-(4-methylthiazol-5-yl)phenyl)ethyl)pyrrolidine-2-carboxamide], the half-maximal degradation concentration (DC50) was less than 2.5 nM and the Dmax was greater than 75%.
In the case of `CC(C)[C@H](C(=O)N1C[C@H](O)C[C@H]1C(=O)N[C@@H](C)c1ccc(-c2scnc2CO)cc1)c1cc(OCCN2CCC(O[C@H]3C[C@H](Oc4cc(N5C6CCC5CN(c5cc(-c7ccccc7O)nnc5N)C6)ccn4)C3)CC2)no1` [compound 219, (2S,4R)-1-((2S)-2-(3-(2-(4-((1r,3S)-3-((4-(3-(3-amino-6-(2-hydroxyphenyl)pyridazin-4-yl)-3,8-diazabicyclo[3.2.1]octan-8-yl)pyridin-2-yl)oxy)cyclobutoxy)piperidin-1-yl)ethoxy)isoxazol-5-yl)-3-methylbutanoyl)-4-hydroxy-N-((S)-1-(4-(4-(hydroxymethyl)thiazol-5-yl)phenyl)ethyl)pyrrolidine-2-carboxamide], the DC50 is greater than 30 nM.
For `Cc1ncsc1-c1ccc(CNC(=O)[C@@H]2C[C@@H](O)CN2C(=O)[C@H](c2cc(OCC#Cc3ccc(O[C@H]4C[C@H](Oc5cc(N6C7CCC6CN(c6cc(-c8ccccc8O)nnc6N)C7)ccn5)C4)cn3)no2)C(C)C)cc1` [compound 220, (2S,4R)-1-((2S)-2-(3-((3-(5-((1r,3S)-3-((4-(3-(3-amino-6-(2-hydroxyphenyl)pyridazin-4-yl)-3,8-diazabicyclo[3.2.1]octan-8-yl)pyridin-2-yl)oxy)cyclobutoxy)pyridin-2-yl)prop-2-yn-1-yl)oxy)isoxazol-5-yl)-3-methylbutanoyl)-4-hydroxy-N-(4-(4-methylthiazol-5-yl)benzyl)pyrrolidine-2-carboxamide], the DC50 was in the range of 10 to 30 nM and the Dmax is greater than 75%.
For the molecule `Cc1ncsc1-c1ccc(CNC(=O)[C@@H]2C[C@@H](O)CN2C(=O)[C@@H](c2cc(OCC#Cc3ccc(O[C@H]4C[C@H](Oc5cc(N6C7CCC6CN(c6cc(-c8ccccc8O)nnc6N)C7)ccn5)C4)cn3)no2)C(C)C)cc1` [compound 221, (2S,4R)-1-((2R)-2-(3-((3-(5-((1r,3R)-3-((4-(3-(3-amino-6-(2-hydroxyphenyl)pyridazin-4-yl)-3,8-diazabicyclo[3.2.1]octan-8-yl)pyridin-2-yl)oxy)cyclobutoxy)pyridin-2-yl)prop-2-yn-1-yl)oxy)isoxazol-5-yl)-3-methylbutanoyl)-4-hydroxy-N-(4-(4-methylthiazol-5-yl)benzyl)pyrrolidine-2-carboxamide], the DC50 is less than 2.5 nM and the Dmax is greater than 75%.
